From patent US20240376084A1, “INHIBITORS OF ALPHA-HEMOLYSIN OF STAPHYLOCOCCUS AUREUS” (Helmholtz-Zentrum Fur Infektionsforschung GmbH, priority 2021, published 2024)

Columns and labels:
[1] = biological target: S. aureus Alpha hemolysin (Staphylococcus aureus, UniProt P09616); assay: cell-based; details: A549-LDH Assay activity
[2] = biological target: hemolysin alpha from Staphylococcus aureus (Staphylococcus aureus, UniProt P09616); assay: cell-based
Sequence of hemolysin alpha from Staphylococcus aureus (P09616 27-319 limits assumed): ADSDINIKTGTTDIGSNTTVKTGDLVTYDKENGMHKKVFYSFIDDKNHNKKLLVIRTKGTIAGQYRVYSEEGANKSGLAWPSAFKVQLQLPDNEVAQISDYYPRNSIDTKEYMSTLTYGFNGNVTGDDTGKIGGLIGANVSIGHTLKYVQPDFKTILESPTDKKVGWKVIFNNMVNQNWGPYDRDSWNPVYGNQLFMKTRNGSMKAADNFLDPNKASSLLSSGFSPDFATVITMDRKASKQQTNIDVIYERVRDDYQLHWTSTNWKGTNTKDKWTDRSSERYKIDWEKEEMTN

Sequence of S. aureus Alpha hemolysin (P09616 27-319 limits assumed): as above

CCOC(=O)c1ccccc1-c1ccc(NS(=O)(=O)c2cc3[nH]c(=O)c(=O)[nH]c3cc2C)cc1Cl [Compound 138, ethyl 2′-chloro-4′-((7-methyl-2,3-dioxo-1,2,3,4-tetrahydroquinoxaline)-6-sulfonamido)-[1,1′-biphenyl]-2-carboxylate]
EC50 [1]: 1 to 6 µM
IC50 [2]: 1 to 3.5 µM

Cc1cc2[nH]c(=O)c(=O)[nH]c2cc1S(=O)(=O)Nc1cc(C)c(-c2cc[nH]c2)c(C)c1 [Compound 135, N-(3,5-dimethyl-4-(1H-pyrrol-3-yl)phenyl)-7-methyl-2,3-dioxo-1,2,3,4-tetrahydroquinoxaline-6-sulfonamide]
EC50 [1]: 0.1 to 1 µM
IC50 [2]: 0.1 to 1 µM

O=c1[nH]c2cc(Cl)c(S(=O)(=O)Nc3ccc(C4CCCCC4)cc3)cc2[nH]c1=O [Compound 170, 7-chloro-N-(4-cyclohexylphenyl)-2,3-dioxo-1,2,3,4-tetrahydroquinoxaline-6-sulfonamide]
EC50 [1]: 0.1 to 1 µM
IC50 [2]: 0.1 to 1 µM

Cc1cc2[nH]c(=O)c(=O)[nH]c2cc1S(=O)(=O)Nc1ccc(-c2ccc(Cl)c(Cl)c2)c(Cl)c1 [Compound 257, N-[3-chloro-4-(3,4-dichlorophenyl)phenyl]-7-methyl-2,3-dioxo-1,4-dihydroquinoxaline-6-sulfonamide]
EC50 [1]: 0.03 to 0.1 µM
EC50 [2]: < 0.03 µM

Cc1cc2[nH]c(=O)c(=O)[nH]c2cc1S(=O)(=O)Nc1ccc(-c2ccc3c(c2)OCCO3)c(Cl)c1 [Compound 259, N-[3-chloro-4-(2,3-dihydro-1,4-benzodioxin-6-yl)phenyl]-7-methyl-2,3-dioxo-1,4-dihydroquinoxaline-6-sulfonamide]
EC50 [1]: 0.1 to 1 µM
EC50 [2]: < 0.03 µM

Cc1cc2[nH]c(=O)c(=O)[nH]c2cc1S(=O)(=O)Nc1ccc(-c2ccc3c(c2)N(C)C(=O)CO3)c(Cl)c1 [Compound 356, N-[3-chloro-4-(4-methyl-3-oxo-1,4-benzoxazin-6-yl)phenyl]-7-methyl-2,3-dioxo-1,4-dihydroquinoxaline-6-sulfonamide]
EC50 [1]: 0.03 to 0.1 µM
EC50 [2]: < 0.03 µM

Cc1cc2[nH]c(=O)c(=O)[nH]c2cc1S(=O)(=O)Nc1ccc(-c2ccc(F)c(C(N)=O)c2)c(C(F)(F)F)c1 [Compound 368, 2-fluoro-5-[4-[(7-methyl-2,3-dioxo-1,4-dihydroquinoxalin-6-yl)sulfonylamino]-2-(trifluoromethyl)phenyl]benzamide]
EC50 [1]: 0.1 to 1 µM
EC50 [2]: 0.03 to 0.1 µM

Cc1cc2[nH]c(=O)c(=O)[nH]c2cc1S(=O)(=O)Nc1ccc(-c2ccncc2)c(Cl)c1 [Compound 37, N-(3-chloro-4-(pyridin-4-yl)phenyl)-7-methyl-2,3-dioxo-1,2,3,4-tetrahydroquinoxaline-6-sulfonamide]
EC50 [1]: 0.03 to 0.1 µM
IC50 [2]: < 0.03 µM

Cc1cc2[nH]c(=O)c(=O)[nH]c2cc1S(=O)(=O)Nc1ccc(-n2ccnc2)c(Cl)c1 [Compound 285, N-(3-chloro-4-imidazol-1-yl-phenyl)-7-methyl-2,3-dioxo-1,4-dihydroquinoxaline-6-sulfonamide]
EC50 [1]: 0.1 to 1 µM
EC50 [2]: 0.1 to 1 µM

Cc1cc2[nH]c(=O)c(=O)[nH]c2cc1S(=O)(=O)Nc1ccc(-c2ccc3nccn3c2)c(Cl)c1 [Compound 328, N-(3-chloro-4-imidazo[1,2-a]pyridin-6-yl-phenyl)-7-methyl-2,3-dioxo-1,4-dihydroquinoxaline-6-sulfonamide]
EC50 [1]: 0.1 to 1 µM
EC50 [2]: 0.1 to 1 µM

C#Cc1cc(NS(=O)(=O)c2cc3[nH]c(=O)c(=O)[nH]c3cc2C)ccc1-c1ccc(OC)c(F)c1 [Compound 300, N-[3-ethynyl-4-(3-fluoro-4-methoxy-phenyl)phenyl]-7-methyl-2,3-dioxo-1,4-dihydroquinoxaline-6-sulfonamide]
EC50 [1]: < 0.03 µM
EC50 [2]: < 0.03 µM

O=c1[nH]c2cc(F)c(S(=O)(=O)Nc3ccc(-c4ccccc4)c(Cl)c3)cc2[nH]c1=O [Compound 40, N-(2-chloro-[1,1′-biphenyl]-4-yl)-7-fluoro-2,3-dioxo-1,2,3,4-tetrahydroquinoxaline-6-sulfonamide]
EC50 [1]: 0.1 to 1 µM
IC50 [2]: 0.03 to 0.1 µM

O=c1[nH]c2cc(Cl)c(S(=O)(=O)Nc3ccc(OC(F)(F)F)cc3)cc2[nH]c1=O [Compound 47, 7-chloro-2,3-dioxo-N-(4-(trifluoromethoxy)phenyl)-1,2,3,4-tetrahydroquinoxaline-6-sulfonamide]
EC50 [1]: 0.03 to 0.1 µM
IC50 [2]: 0.03 to 0.1 µM

CCc1ccccc1-c1ccc(NS(=O)(=O)c2cc3[nH]c(=O)c(=O)[nH]c3cc2C)cc1 [Compound 113, N-(2′-ethyl-[1,1′-biphenyl]-4-yl)-7-methyl-2,3-dioxo-1,2,3,4-tetrahydroquinoxaline-6-sulfonamide]
EC50 [1]: 0.1 to 1 µM
IC50 [2]: 0.1 to 1 µM

O=c1[nH]c2cc(Cl)c(S(=O)(=O)Nc3ccc(-c4cccnc4)c(Cl)c3)cc2[nH]c1=O [Compound 48, 7-chloro-N-(3-chloro-4-(pyridin-3-yl)phenyl)-2,3-dioxo-1,2,3,4-tetrahydroquinoxaline-6-sulfonamide]
EC50 [1]: 1 to 6 µM
IC50 [2]: 0.03 to 0.1 µM

Cc1cc2[nH]c(=O)c(=O)[nH]c2cc1S(=O)(=O)Nc1ccc(-c2ccc(C(F)(F)F)nc2)c(Cl)c1 [Compound 275, N-[3-chloro-4-[6-(trifluoromethyl)-3-pyridyl]phenyl]-7-methyl-2,3-dioxo-1,4-dihydroquinoxaline-6-sulfonamide]
EC50 [1]: 1 to 6 µM
EC50 [2]: 0.1 to 1 µM

COc1cc(NS(=O)(=O)c2cc3[nH]c(=O)c(=O)[nH]c3cc2C)ccc1-c1ccccc1 [Compound 81, N-(2-methoxy-[1,1′-biphenyl]-4-yl)-7-methyl-2,3-dioxo-1,2,3,4-tetrahydroquinoxaline-6-sulfonamide]
EC50 [1]: 0.1 to 1 µM
IC50 [2]: 0.1 to 1 µM

O=c1[nH]c2cc(Cl)c(S(=O)(=O)Nc3ccc4c(c3)CCCC4)cc2[nH]c1=O [Compound 174, 7-chloro-2,3-dioxo-N-(5,6,7,8-tetrahydronaphthalen-2-yl)-1,2,3,4-tetrahydroquinoxaline-6-sulfonamide]
EC50 [1]: 0.03 to 0.1 µM
IC50 [2]: 0.1 to 1 µM

Cc1cc2[nH]c(=O)c(=O)[nH]c2cc1S(=O)(=O)Nc1ccc(-c2ccc3c(c2)CCNC3=O)c(Cl)c1 [Compound 334, N-[3-chloro-4-(1-oxo-3,4-dihydro-2H-isoquinolin-6-yl)phenyl]-7-methyl-2,3-dioxo-1,4-dihydroquinoxaline-6-sulfonamide]
EC50 [1]: 1 to 6 µM
EC50 [2]: 0.1 to 1 µM

Cc1cc2[nH]c(=O)c(=O)[nH]c2cc1S(=O)(=O)Nc1ccc(-c2ccccc2N(C)C)c(Cl)c1 [Compound 136, N-(2-chloro-2′-(dimethylamino)-[1,1′-biphenyl]-4-yl)-7-methyl-2,3-dioxo-1,2,3,4-tetrahydroquinoxaline-6-sulfonamide]
EC50 [1]: 0.1 to 1 µM
IC50 [2]: 0.1 to 1 µM

Cc1cc(NS(=O)(=O)c2cc3[nH]c(=O)c(=O)[nH]c3cc2Cl)cc(C)c1-c1ccccc1 [Compound 106, 7-chloro-N-(2,6-dimethyl-[1,1′-biphenyl]-4-yl)-2,3-dioxo-1,2,3,4-tetrahydroquinoxaline-6-sulfonamide]
EC50 [1]: 0.03 to 0.1 µM
IC50 [2]: 0.1 to 1 µM

Cc1cc2[nH]c(=O)c(=O)[nH]c2cc1S(=O)(=O)Nc1ccc(OC(F)(F)F)c(Br)c1 [Compound 322, N-[3-bromo-4-(trifluoromethoxy)phenyl]-7-methyl-2,3-dioxo-1,4-dihydroquinoxaline-6-sulfonamide]
EC50 [1]: 0.03 to 0.1 µM
EC50 [2]: 0.03 to 0.1 µM

CCc1ccccc1-c1c(C)cc(NS(=O)(=O)c2cc3[nH]c(=O)c(=O)[nH]c3cc2C)cc1C [Compound 134, N-(2′-ethyl-2,6-dimethyl-[1,1′-biphenyl]-4-yl)-7-methyl-2,3-dioxo-1,2,3,4-tetrahydroquinoxaline-6-sulfonamide]
EC50 [1]: 0.03 to 0.1 µM
IC50 [2]: 0.1 to 1 µM

CNc1cc2[nH]c(=O)c(=O)[nH]c2cc1S(=O)(=O)Nc1ccc(OC(F)(F)F)cc1 [Compound 381, 7-(methylamino)-2,3-dioxo-N-[4-(trifluoromethoxy)phenyl]-1,4-dihydroquinoxaline-6-sulfonamide]
EC50 [1]: 0.1 to 1 µM
EC50 [2]: 0.1 to 1 µM

N#Cc1cc2[nH]c(=O)c(=O)[nH]c2cc1S(=O)(=O)Nc1ccc(OC(F)(F)F)cc1 [Compound 216, 7-cyano-2,3-dioxo-N-(4-(trifluoromethoxy)phenyl)-1,2,3,4-tetrahydroquinoxaline-6-sulfonamide]
EC50 [1]: 0.1 to 1 µM
EC50 [2]: 0.1 to 1 µM

O=c1[nH]c2cc(F)c(S(=O)(=O)Nc3ccc(-c4ccncc4)c(Cl)c3)cc2[nH]c1=O [Compound 150, N-(3-chloro-4-(pyridin-4-yl)phenyl)-7-fluoro-2,3-dioxo-1,2,3,4-tetrahydroquinoxaline-6-sulfonamide]
EC50 [1]: 0.1 to 1 µM
IC50 [2]: 0.1 to 1 µM

Cc1cc2[nH]c(=O)c(=O)[nH]c2cc1S(=O)(=O)Nc1cc(C)c(-c2ccccc2Cl)c(C)c1 [Compound 104, N-(2′-chloro-2,6-dimethyl-[1,1′-biphenyl]-4-yl)-7-methyl-2,3-dioxo-1,2,3,4-tetrahydroquinoxaline-6-sulfonamide]
EC50 [1]: 0.1 to 1 µM
IC50 [2]: 0.1 to 1 µM

Cc1ccc(-c2ccc(NS(=O)(=O)c3cc4[nH]c(=O)c(=O)[nH]c4cc3C)cc2Cl)s1 [Compound 52, N-(3-chloro-4-(5-methylthiophen-2-yl)phenyl)-7-methyl-2,3-dioxo-1,2,3,4-tetrahydroquinoxaline-6-sulfonamide]
EC50 [1]: 0.1 to 1 µM
IC50 [2]: 0.03 to 0.1 µM

COc1ccc(-c2ccc(NS(=O)(=O)c3cc4[nH]c(=O)c(=O)[nH]c4cc3C)cc2Cl)cc1C#N [Compound 289, N-[3-chloro-4-(3-cyano-4-methoxy-phenyl)phenyl]-7-methyl-2,3-dioxo-1,4-dihydroquinoxaline-6-sulfonamide]
EC50 [1]: 0.1 to 1 µM
EC50 [2]: 0.03 to 0.1 µM

Cc1cc2[nH]c(=O)c(=O)[nH]c2cc1S(=O)(=O)Nc1ccc(-c2ccc3cccnc3c2)c(Cl)c1 [Compound 351, N-[3-chloro-4-(7-quinolyl)phenyl]-7-methyl-2,3-dioxo-1,4-dihydroquinoxaline-6-sulfonamide]
EC50 [1]: 0.1 to 1 µM
EC50 [2]: < 0.03 µM

Cc1cc2[nH]c(=O)c(=O)[nH]c2cc1S(=O)(=O)Nc1cc(C)c(-c2cccc(Cl)c2)c(C)c1 [Compound 57, N-(3′-chloro-2,6-dimethyl-[1,1′-biphenyl]-4-yl)-7-methyl-2,3-dioxo-1,2,3,4-tetrahydroquinoxaline-6-sulfonamide]
EC50 [1]: 0.03 to 0.1 µM
IC50 [2]: 0.03 to 0.1 µM
